The values that follow come from a melting point compilation (Tetko et al.; mined from patent text by program, amines drawn as free bases though some values may be those of a salt).

Structures are written as SMILES.

On to `CCOCCN(CCOCC)C(=O)c1n[nH]c2c(=O)[nH]c3cc(Cl)ccc3c(=O)c12`, for which the melting point (as a rule, the temperature of the solid-liquid transition) is 202 °C.

`CCCCc1ncc(CC(Cc2cccs2)C(=O)O)n1Cc1ccc(C(=O)O)cc1` (centres undefined) yielded a melting point of 175 °C.

With `CC1(C)Cc2c(c(N3CCCCC3)nc3sc4c(NCCN5CCOCC5)ncnc4c23)CO1`, the melting point turned out to be 158 °C.

The molecule `CCC1=C(c2cccc(F)c2)C(=O)N(c2cccc(C(F)(F)F)c2)C1` returned a melting point of 77.5 to 79 °C.

`C=CCC(C#N)(C#N)Cc1ccc(C#N)cc1`: the melting point stood at 81.9 °C.

In turn, `CCCCCCCCCCCCCCC(=O)C(=O)N[C@@H](CCCC)C(=O)NCC(=O)OC(C)(C)C` showed a melting point of 38 to 39 °C.

In the case of `Cc1nnc(-c2nnc(S)o2)o1`, the melting point lay within 150 to 151 °C.

Consider `CNC(=O)c1c(O)c(=O)cc(C)n1C`, for which the melting point is > 250 °C.

In the case of `O=C(OCC1OC(n2ccc(=O)[nH]c2=O)C(O)C1OC(=O)c1ccccc1)c1ccccc1` (centres undefined), the melting point was 111 to 114 °C.

`CC(C)Cn1cnc2c(Cl)nc3ccccc3c21` yielded a melting point of 134 to 136 °C.

Consider `CC(N)c1nnc(Cc2cccc3ccccc23)[nH]c1=O` (centres undefined), for which the melting point turned out to be 180 °C.

`Nc1cc(=O)nc(Nc2ccccc2)n1-c1ccc(Br)cc1`: the melting point was in the range of 211 to 213 °C.

On to `COc1ccc(-c2ccc(C(=O)Nc3cc4ncc(CN5CCCC5)cc4cc3F)c(F)c2)cc1`, for which the melting point fell in the range of 174 to 176 °C.

For `C=CCCCOc1ccc2c(=O)cc(-c3ccccc3)oc2c1`, the melting point was 104 to 106 °C.

`CC(=O)c1ccc(N(C2CC2)S(=O)(=O)c2cccc(C(=O)Nc3ccc(C#N)cc3)c2)cc1` showed a melting point of 185 to 186 °C.

Take `CCOC(=O)C(NC(=O)Cc1ccc(N)cn1)C(=O)OCC`: the melting point fell in the range of 89 to 90 °C.

For `Cc1ccc(-c2nnc(N3CCCCC3)nc2-c2ccc(C)cc2)cc1`, the melting point is 141 to 143 °C.

The molecule `O=C(O)CCCC(=O)c1ccc(O)c(CCC(=O)O)n1` gave a melting point of 134 to 136 °C.

Take `Nc1ccccc1/C=C/C(=O)CC(=O)/C=C/c1ccc(O)cc1`: the melting point was 186 to 193 °C.

Molecule `O=C1OC(O)c2c(Cl)cccc21` (centres undefined) came in with a melting point of 120 to 122 °C.

`CCS(=O)(=O)c1cc2c(c(C(=O)O)c1)OCCO2` came in with a melting point of 217 to 218 °C.

As for `O=C(NC1CCOCC1)c1ccc(-c2cc(-c3c(-c4cccc(Cl)c4)nc4ccccn34)ccn2)cc1`, the melting point worked out at 234 °C.

Consider `CCOC(=O)c1cnoc1-c1ccc(F)c(Cl)c1`, for which the melting point is 106 to 107 °C.

In the case of `COCCOc1cc2ncnc(NC3=CC(=O)C(N(C)c4ccc(OC)cc4)=CC3=O)c2cc1OC`, the melting point was 197 to 198 °C.

`CNC(=O)Nc1cc(OC)ccc1Br` yielded a melting point of 164 to 166 °C.

`COc1ccc(C(=O)NC2N=C(c3ccccc3F)c3ccccc3NC2=O)cc1OC` (racemic) came in with a melting point of 206 to 208 °C.

The molecule `CN1CCN(c2c(-c3ccccc3)sc3ccccc23)CC1` came in with a melting point of 118 to 120 °C.

The molecule `CC1(C)CC(=C(c2ccc(O)cc2)c2ccc(C#CCO)cc2)CC(C)(C)C1` had a melting point of 141 to 142 °C.

Take `CC(C)(C)C(O)(COc1ccc(F)cc1)C(C)(F)n1cncn1` (centres undefined): the melting point fell in the range of 90 to 93 °C.

The molecule `CCCCC(CC)Cn1c(O)c(N=Nc2ccc(S(=O)(=O)N(CCO)CCO)cc2)c(C)c(C#N)c1=O` (centres undefined) displayed a melting point of 189 to 190 °C.

In turn, `COC(=O)COc1ccc(-c2ccc(C(=O)O)cc2)cc1-c1ccc2c(c1)C(C)(C)CCC2(C)C` returned a melting point of 104 to 106 °C.

Take `CCCCNS(=O)(=O)c1ccc2[nH]c(=O)c(=O)[nH]c2c1`: the melting point lay within 257 to 262 °C.

For `CCN(CC)CCC(=O)Nc1ccc2c(=O)c3ccc(NC(=O)CCN(CC)CC)cc3[nH]c2c1`, the melting point is > 320 °C.

The molecule `CN1C(=O)c2ccccc2C(CCO)N1c1cccc([N+](=O)[O-])c1` (centres undefined) returned a melting point of 183 to 184 °C.

`CNC(=O)c1cc(Oc2ccc(NC(=O)Nc3ccc(Cl)c(C(F)(F)F)c3)cc2)ccn1` yielded a melting point of 82 to 85 °C.

`CC(=O)OCCc1ccc2c(c1)C(=O)c1ccccc1CO2` had a melting point of 55 to 58 °C.

Turning to `COC(=O)C(=Cc1ccc(OCc2ccccc2)cc1)C(=O)OC`, the melting point is 134 to 135 °C.

Molecule `CCc1nc(C)cn1CO` gave a melting point of 83.1 to 86.3 °C.

On to `CC(=O)N1CCC(c2nc3n(C4CCCC4)[nH]c(C)c-3c(=O)n2)CC1`, for which the melting point was in the range of 176 to 178 °C.

For `COc1ccc2c(c1)CCC1=C2CCC2(C(C)C)C(=O)CC=C12` (centres undefined), the melting point lay within 112 to 113 °C.

For the molecule `COc1ccc(CCc2ccc(-c3ccc(OC(F)F)cc3)cc2)cc1`, the melting point worked out at 153 °C.

Consider `CCOC(=O)c1ccc2c(c1)S(=O)c1ccccc1-2` (centres undefined), for which the melting point was in the range of 210 to 213 °C.

In the case of `CCN(CC)C(=O)C=Cc1cccc([N+](=O)[O-])c1C`, the melting point worked out at 74.3 °C.

Turning to `Cn1ncc2c1-c1cn[nH]c1CC2`, the melting point was in the range of 180 to 186 °C.

`Cc1cc(C2=CC(C)(C)CC(C)(C)C2CO)ccc1F` (centres undefined) displayed a melting point of 40 to 42 °C.

In turn, `Oc1ccc2cc(-c3cnc(-c4ccccc4)o3)ccc2c1` displayed a melting point of 235 to 238 °C.

`COC(=O)c1cc(C=O)c(NS(C)(=O)=O)c([N+](=O)[O-])c1` showed a melting point of 158 to 160 °C.

In the case of `O=C1NC(=O)C2(CC(O)c3ccccc32)N1` (centres undefined), the melting point lay within 260 to 263 °C.

With `O=C(O)C(Cl)(Cl)CCCCCCCCCCCCSc1ccccc1`, the melting point was 74 °C.

`CC(C)(C)C1CCC(C2=C(O)C(=O)c3ccccc3C2=O)CC1` (centres undefined) had a melting point of 123 to 126 °C.

`COc1ccc(C(CC(=O)c2ccccc2)C(=O)O)cc1` (centres undefined): the melting point is 157 to 158 °C.

Molecule `COC(=O)C1=C(C)Nc2c(c(C)nn2C)C1c1ccccc1[N+](=O)[O-]` (centres undefined) returned a melting point of 216 to 220 °C.

`Cc1nc2c(N)nc3c(c2n1CCCCS(=O)(=O)C(C)C)CCCC3` displayed a melting point of 177 to 178 °C.

`COc1cc2[nH]nc(C(=O)NN=Cc3ccc([N+](=O)[O-])o3)c2cc1OC` came in with a melting point of 334 °C.

The molecule `OCc1ccccc1-c1nc(-c2ccc(Cl)cc2)n[nH]1` gave a melting point of 252 to 254 °C.

With `CC(=O)Nc1cccc2c(-c3ccc(=O)n(C(C)C)n3)c(-c3ccccc3)nn12`, the melting point lay in the range of 92 to 96 °C.

Molecule `CCCCCCCC[C@H]1C[C@H]1CCCCCCCC(=O)NC(Cc1ccccc1)Cc1ccccc1` (relative stereo) gave a melting point of 40 to 45 °C.

`CCn1ncc2c3c(NCc4ccc(OC)c(Cl)c4)nnc(-n4cnc(C(=O)NC)c4)c3cnc21` gave a melting point of 181 to 183 °C.

`NC(=NC(=O)Cn1c(Cl)ccc1Cl)NC(=O)Cc1ccccc1` displayed a melting point of 181 to 183 °C.

Turning to `CC1CN(CCCCC(c2ccc(F)cc2)c2ccc(F)cc2)CCN1CC(=O)Nc1c(Cl)cc(NC(N)=O)cc1Cl` (centres undefined), the melting point was 120 °C.

`O=C(CC12CC3CC(CC(C3)C1)C2)Nc1ccc2[nH]ncc2c1` showed a melting point of 265 °C.

`COc1ccc(CC2(C)CN(C(c3ccccc3)c3ccccc3)CCN2)cc1OC` (centres undefined) showed a melting point of 123 °C.

`N#Cc1cccc2c1CCC2=NO` gave a melting point of 200 to 202 °C.

As for `CCCCC(=O)Nc1c(C(=O)c2cccc(C)c2)[nH]c2cc(Cl)ccc12`, the melting point fell in the range of 124 to 126 °C.
